# Laboratory results published in US20020193425A1, “Cancer chemopreventative compounds and compositions and methods of treating cancers” (priority 2001, published 2002).
# Key:
# [1] = Cytotoxicity, viability by Trypan blue exclusion; type: cell-based; settings: human, NB4; four days; read-out: Cytotoxicity (IC50, ng/ml)
# Excerpt: (§1) All cells were routinely tested for mycoplasma contamination.
# (§2) Cellular viability was monitored by Trypan blue exclusion.
# DHL-6 = experiment: Cytotoxicity, viability by Trypan blue exclusion; type: cell-based; settings: for Cytotoxicity (IC50, ng/ml): DHL-6, four days
# Excerpt: as §1, §2
# Daudi = experiment: Cytotoxicity, viability by Trypan blue exclusion; type: cell-based; settings: for Cytotoxicity (IC50, ng/ml): Daudi, four days
# Excerpt: as §1, §2
# NB4 = experiment: Cytotoxicity, viability by Trypan blue exclusion; type: cell-based
# Excerpt: as §1, §2
# HL-60 cells = experiment: In vivo hollow fiber test
# Method: As a preliminary test of in vivo efficacy, a hollow fiber study was performed. The in vivo hollow fiber test was performed using literature procedures with some modifications (see M. G. Hollingshead et al., Life Sic., 57, pages 131-141 (1995)). HL-60 cells were cultured in RPMI 1640 medium and collected by centrifugation and resuspended in conditioned medium at a concentration of 2.5×10^6 cells/ml. Fibers filled with cells were incubated in 6-well plates overnight at 37° C. in a 5% CO2 atmosphere. Female athymic NCr nu/nu mice at 5-6 weeks of age were obtained from Frederick Cancer Research Facility. Each mouse hosted up to 6 fibers, which were cultured in two physiologic compartments. For intraperitoneal implants, a small incision was made through the skin and musculature of the dorsal abdominal wall, the fiber samples were inserted into the peritoneal cavity in a craniocaudal direction, and the incision was closed with skin staples. For subcutaneous implants, a small skin incision was made at the nape of the neck to allow insertion of an 11-gauge tumor implant trocar. The trocar, containing the hollow fiber samples, was inserted caudally through the subcutaneous tissues and fibers were deposited during withdrawal of the trocar. The incision was closed with a skin staple.
# In preliminary studies, cell growth was assessed with fibers containing various cell densities. […] For treatment protocols, brusatol was dissolved in PBS. Mice were randomized into 7 groups: PBS vehicle control group (6 mice per group); 0.25, 0.5, 1.25, 2.5, 5, 12.5 mg/kg of brusatol (3 mice per group). Test compound brusatol was administered once daily by intraperitoneal injection from day 3-6 after implantation. Body weights were measured daily.
# On day 7, mice were sacrificed and fibers were retrieved. […] Aliquots (150 μl) of extracted MTT formazan were transferred to Individual wells of 96-well plates and assessed for optical density at a wavelength of 540 nm. The effect of the treatment regimen was determined by the net growth percentage of the cells relative to change in […].
# [2] = Cytotoxicity, viability by Trypan blue exclusion; settings: human, Kasumi-1 cells, Cytotoxicity (IC50, ng/ml), four days
# Method: (§3) HL-60, K562, U937, Reh and Daudi cells were obtained from the American Type Culture Collection (Rockville, Md.). Kasumi-1, NB4, BV173, SUPB13, and RS4;11 cells were provided by the Section of Hematology/Oncology, University of Illinois College of Medicine, Chicago, Ill. All cell lines were maintained in suspension culture using RPMI 1640 medium supplemented with 10% heat-inactivated fetal bovine serum, 100 units of penicillin/ml and 100 μg of streptomycin/ml at 37° C. in a humidified atmosphere of 5% CO2 in air. All cells were routinely tested for mycoplasma contamination.
# (§4) Cellular viability was monitored by Trypan blue exclusion. Inhibition of [3H]thymidine incorporation into DNA was determined to assess the level of cell proliferation as well as DNA synthesis inhibition. […] The filters were counted using a Microbeta™ liquid scintillation counter (Wallac, Turku, Finland) with scintillation fluid. Finally, the percentage of [3H]thymidine incorporation per 10^6 cells was calculated by dividing the dpm of sample-treated cells by the dpm of DMSO-treated cells.
# (§5) ^aViability was determined by Trypan blue exclusion in duplicate samples. […] Results are expressed as median inhibitory cell concentrations of two independent experiments (±standard deviations).
# Kasumi-1 = experiment: Cytotoxicity, viability by Trypan blue exclusion; settings: four days
# Method: as §3, §4, §5
# in vitro = settings: human
# Method: as §3
# Cellular viability was monitored by Trypan blue exclusion. Inhibition of [3H]thymidine incorporation into DNA was determined to assess the level of cell proliferation as well as DNA synthesis inhibition. Cells were treated with test samples for four days and then placed into 96-well plates (100 μl) and treated with [3H]thymidine (0.5 μCi/ml, 65 Ci/mmol) for 18 h at 37° C. in a 5% CO2 incubator. Cells then were collected on glass fiber filters using a TOMTEC Harvester 96®. The filters were counted using a Microbeta™ liquid scintillation counter (Wallac, Turku, Finland) with scintillation fluid. Finally, the percentage of [3H]thymidine incorporation per 10^6 cells was calculated by dividing the dpm of sample-treated cells by the dpm of DMSO-treated cells.
# as §5
# [3] = system: patients with various types of solid tumors; settings: phase I clinical trials; cited from earlier work
Compound,IC50 at 4 days [1] [ng/mL],"Cytotoxicity (IC50, ng/ml) (DHL-6; listed as Brusatol) [ng/mL]","Cytotoxicity (IC50, ng/ml) (DHL-6; listed as brusatol)","cytotoxicity (DHL-6; human, 48 h, 25 ng/ml) [%]","Cytotoxicity (IC50, ng/ml) (Daudi; listed as Brusatol) [ng/mL]","Cytotoxicity (IC50, ng/ml) (Daudi; listed as brusatol)","cytotoxicity (Daudi; human, 48 h, 25 ng/ml) [%]","Cytotoxicity (IC50, ng/ml) (NB4; NB4, four days) [ng/mL]","cytotoxicity (NB4; human, 48 h, 25 ng/ml) [%]","inhibition at s.c. site (HL-60 cells; HL-60 hollow fibers, 5 mg/kg) [%]","inhibitory percentage at s.c. site (HL-60 cells; HL-60 hollow fibers, doses from 0.25 mg/kg, below 5 mg/kg)","lethality (HL-60 cells; mice, 12.5 mg/kg)",IC50 at 4 days [2] [mg/L],"Cytotoxicity (IC50, ng/ml) (Kasumi-1) [ng/mL]",IC50 at 4 days (in vitro) [mg/L],hematologic toxicity [3]
"COC(=O)[C@@]12OC[C@]34[C@H]([C@@H](O)[C@@H]1O)[C@@]1(C)CC(=O)C(O)=C(C)[C@@H]1C[C@H]3OC(=O)[C@H](OC(=O)C=C(C)C)[C@@H]24 [compound 1, brusatol]",< 25,5 ± 0.5,less than 25 ng/ml,100,5 ± 0.3,less than 25 ng/ml,100,15 ± 0.2,100,80.8,around 25%,lethal,0.05 to 0.1,75 ± 5.1,,
"COC(=O)[C@@]12OC[C@]34[C@H]([C@@H](O)[C@@H]1O)[C@@]1(C)CC(=O)C(O)=C(C)[C@@H]1C[C@H]3OC(=O)[C@H](OC(=O)/C=C(\C)C(C)C)[C@@H]24 [compound 2, bruceantin]",,,,,,,,,,,,,,,> 0.05,moderate to insignificant
